Measurements: paper PMC6273962, “Design, Synthesis and Structure-Activity Relationships of Novel Diaryl Urea Derivatives as Potential EGFR Inhibitors” (Molecules, 2016)

Target: EGFR (Homo sapiens, UniProt P00533)
Assay: mobility shift kinase assay (Caliper, FAM-labeled peptide)
Assay type: biochemical

Sequence of EGFR (P00533 25-1210): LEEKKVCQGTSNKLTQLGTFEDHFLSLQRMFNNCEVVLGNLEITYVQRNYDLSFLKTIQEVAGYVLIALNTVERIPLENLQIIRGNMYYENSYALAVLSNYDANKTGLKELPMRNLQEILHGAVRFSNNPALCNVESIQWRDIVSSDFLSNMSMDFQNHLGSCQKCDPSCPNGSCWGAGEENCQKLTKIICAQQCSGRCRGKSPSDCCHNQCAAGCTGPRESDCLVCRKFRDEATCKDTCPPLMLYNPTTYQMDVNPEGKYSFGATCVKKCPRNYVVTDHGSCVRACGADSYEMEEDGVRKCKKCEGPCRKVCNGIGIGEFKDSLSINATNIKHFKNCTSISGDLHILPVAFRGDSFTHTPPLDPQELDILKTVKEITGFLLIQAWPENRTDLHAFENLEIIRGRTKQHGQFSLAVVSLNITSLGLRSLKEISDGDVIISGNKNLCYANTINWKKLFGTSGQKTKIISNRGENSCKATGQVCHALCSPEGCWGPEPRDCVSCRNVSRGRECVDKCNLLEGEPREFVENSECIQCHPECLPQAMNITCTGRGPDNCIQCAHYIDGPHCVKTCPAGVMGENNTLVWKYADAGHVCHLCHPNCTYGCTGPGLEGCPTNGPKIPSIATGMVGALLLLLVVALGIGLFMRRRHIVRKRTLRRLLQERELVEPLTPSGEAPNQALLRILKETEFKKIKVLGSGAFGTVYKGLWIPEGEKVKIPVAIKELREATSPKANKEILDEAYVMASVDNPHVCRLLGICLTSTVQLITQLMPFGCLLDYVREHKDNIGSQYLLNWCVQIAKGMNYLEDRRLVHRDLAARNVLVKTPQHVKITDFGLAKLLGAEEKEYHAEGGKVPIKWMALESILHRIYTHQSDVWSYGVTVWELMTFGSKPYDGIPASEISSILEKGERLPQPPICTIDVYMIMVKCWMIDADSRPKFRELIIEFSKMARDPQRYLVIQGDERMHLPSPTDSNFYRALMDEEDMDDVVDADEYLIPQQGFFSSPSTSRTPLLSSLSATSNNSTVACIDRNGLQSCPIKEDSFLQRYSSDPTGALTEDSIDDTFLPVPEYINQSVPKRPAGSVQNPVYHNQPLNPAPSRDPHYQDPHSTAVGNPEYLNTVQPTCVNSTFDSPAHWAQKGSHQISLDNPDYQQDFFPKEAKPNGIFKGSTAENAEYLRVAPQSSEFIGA

IC50: 56 nM
Compound: Cc1cccc(Cl)c1NC(=O)Nc1ccc(-c2nc(NCCN(C)C)c3ccccc3n2)cc1 [5a, 1-(2-Chloro-6-methylphenyl)-3-(4-(4-((2-(dimethylamino)ethyl)amino)quinazolin-2-yl)phenyl)urea]
